Data as given in publication PMC9354954, “Assessing Bioavailability and Bioactivity of 4-Hydroxythiazolidine-2-Thiones, Newly Discovered Glucosinolate Degradation Products Formed During Domestic Boiling of Cabbage” (Frontiers in Nutrition, 2022).

Legend:
[1] = Uptake and excretion from red cabbage broth, human self-experiment (24 h urine, LC-MS/MS); assay type: in vivo; conditions: male, 500 mL red cabbage broth, oral, n = 3, mean ± SD, read-out: recovery in collected urine within 24 h compared to the amount of intake
Experimental: To obtain the GLS degradation products allyl HTT and 4-MSOB HTT in the food matrix, a kitchen practice approach was applied. Therefore, 1.2 kg of fresh conventional red cabbage (Brassica oleracea var. capitata f. rubra) bought in a supermarket were cut into approximately 4 × 4 × 4 cm pieces and boiled for 1 h in 3 L of tap water without additives in a stainless-steel pot with a glass lid on a kitchen stove. After cooling to room temperature, three male authors of this study (27–39 years) drank 500 mL of the red cabbage boiling solution (broth) without red cabbage pieces. […] In total, 950 μL of 1:1 diluted red cabbage boiling solution was measured in 3 different ways (each prepared as duplicates): (1) Spiked with 50 μL water, (2) spiked with 50 μL of a solution with concentrations of 1 μM for allyl HTT and 5 μM for 4-MSOB HTT, or (3) spiked with 50 μL of a solution with concentrations of 3 μM for allyl HTT and 10 μM for 4-MSOB HTT. Urine samples were measured in three different ways (each prepared as duplicates): 200 μL of undiluted urine was spiked with (1) 1 μL of water, (2) 1 μL of a solution with concentrations of 4 μM for allyl HTT and 8 μM for 4-MSOB HTT, or (3) 1.5 μL of a solution with concentrations of 4 μM for allyl HTT and 8 μM for 4-MSOB HTT. […]

[2] = Stability in an in vitro stomach model; assay type: in vitro ADME; conditions: 100 μM, 2 h, 37°C, stomach model solution pH 2
Experimental: To investigate the stability of the HTTs in the process of nutrient absorption, allyl HTT and 4-MSOB HTT were incubated (prepared as triplicates) at a concentration of 100 μM in an in vitro stomach model solution containing 2.9 g/L NaCl, 0.7 g/L KCl, 0.27 g/L KH2PO4, 0.78 g/L pepsin, and 3 g/L mucin-type II and adjusted with 1 M HCl to pH 2.0 based on literature ([25]). To simulate the stomach, samples were shaken slightly for 2 h at 200 rpm in a thermoshaker (MHR 23, Hettich Benelux B.V, Netherlands) at 37°C. Afterward, 500 μL of MeCN were added to 500 μL of stomach model solution to precipitate proteins and salts. The suspension was centrifuged for 3 min at 4,000 g and the supernatant was analyzed by HPLC-UV at a wavelength of 274 ± 2 nm. The stability of allyl HTT and 4-MSOB HTT in the stomach model was determined by the recovery compared to incubation in pure water at room temperature. […]

[3] = Estimation of permeability coefficients from plot of Levin data using measured partition coefficients; conditions: for Papp: not told, estimated from plot of Levin data (ref 32) using measured octanol/water partition coefficients, read-out: estimated permeability coefficient
Description: The log P-value is positive for compounds which are better soluble in the octanol phase, and is negative for compounds which are better soluble in the aqueous phase. To assess if the different uptake behavior of the two HTTs is based on their different polarity, the octanol/water partition coefficients of several compounds were plotted against their permeability coefficients, based on a previous report by Levin ([32]) (Supplementary Figure S5). The obtained plot was used to estimate the permeability coefficients of the two HTTs with 2 × 10^−4 cm/s for allyl HTT and 1.1 × 10^−5 cm/s for 4-MSOB HTT using the measured octanol/water partition coefficients of both compounds. The ratio of both estimated permeability coefficients was 18 and fitted very well to the measured ratios of 27-fold and 10-fold for the higher uptake of allyl HTT compared to 4-MSOB HTT in the experiments with HepG2 and Caco-2 cells. Therefore, the uptake of allyl HTT and 4-MSOB HTT in the in vitro assays can be primarily explained by simple passive diffusion through the cell membrane. Additionally, the fact that in both intestinal model experiments (transport of the analyte from the upper to the lower compartment, as well as from the lower to an upper compartment), the transport velocity was similar, and an equilibrium concentration between both compartments was reached, supporting the hypothesis of passive diffusion without the need of special transporters.
Figure S5: Plot of data reported by Levin (1980) to describe the correlation between the octanol/water partition coefficients of several compounds and their permeability coefficients. The red line and thin black lines were draw by the author and used to estimate the permeability coefficients of 3-allyl-4-hydroxythiazolidine-2-thione (allyl HTT) and 4-hydroxy-3-(4-(methylsulfinyl)butyl) thiazolidine-2-thione (4-MSOB HTT) using their measured octanol-water partition coefficients (black lines).

Compound | dose excreted [1] [%] | recovery compared to the pure water control reference [2] [%] | ratio of both estimated permeability coefficients ([3]; allyl HTT vs 4-MSOB HTT) | Papp [3] [nm/s]
C=CCN1C(=S)SCC1O (stereo not shown) [allyl HTT, 3-allyl-4-hydroxythiazolidine-2-thione] | 18 ± 5 | 98 ± 2 | 18 | 2000
C[S+]([O-])CCCCN1C(=S)SCC1O (stereo not shown) [4-MSOB HTT, 4-hydroxy-3-(4-(methylsulfinyl)butyl)thiazolidine-2-thione] | 21 ± 4 | 98 ± 3 | – | 110
